Laboratory results as given in patent US12679839B2, “Cyclin-dependent kinase 7 (CDK7) non-covalent inhibitors” (JANSSEN PHARMACEUTICA NV, priority 2020, dated 2026).

Assays:
[1] = target: T1, CDK7/Cyclin H/MAT-1 complex (Homo sapiens, UniProt P50613); assay: Flint assay, end-point fluorescence (5 nM CDK7/Cyclin H/MAT-1 complex); format: biochemical; conditions: for IC50: read-out: CDK7 (5 nM) pIC50 (converted)
T1 construct: Human CDK7 (amino acids 1-346); His6 (N); TEV protease cleavage site (N); made in house; host or cells: baculovirus-SF9 insect cells
Procedure: Human CDK7 (amino acids 1-346) containing an N-terminal His6-tag followed by a tobacco etch virus (TEV) protease cleavage site, human MAT1 (amino acids 1-309) and human cyclin H (amino acids 1-323) were co-expressed in the baculovirus-SF9 insect cell expression system to generate a trimeric complex. Cell pellets were collected 72 h post-infection and were resuspended by Dounce homogenization in 20 mM Hepes-NaOH (pH 8.0), 300 mM NaCl, 10% glycerol, 2 mM dithiothreitol DTT), and 20 mM Imidazole supplemented with cOmplete™ Protease Inhibitor Cocktail (Roche) and 25 U/mL Benzonase® Nuclease HC according to the manufacturer's instructions. Cells were lysed by passing through a Microfluidics M110Y Microfluidizer 3 times at 600 kPa followed by centrifugation at 38,000×g at 4° C. for 1 hour. The supernatant was loaded onto a pre-equilibrated HisTrap HP column and eluted in 20 mM Hepes-NaOH (pH 8.0), 50 mM NaCl, 10% glycerol, 2 mM DTT, and 400 mM Imidazole. The eluate was further purified by gel filtration on a Superdex S200 16/60 column and eluted with 20 mM Hepes-NaOH (pH 7.5), 50 mM NaCl, 10% Glycerol, 2 mM DTT. Fractions containing a trimeric complex of CDK7, cyclin H, and MAT1 in a 1:1:1 ratio were pooled and concentrated to 3 mg/mL in a 10 kDa MWCO concentrator, and diluted to a final concentration of 1.6 mg/mL in 11.1 mM Hepes-NaOH (pH 8.0), 27.8 mM NaCl, 1.1 mM DTT and 50% glycerol.
Compounds with potencies approaching the limit of detection of the assay (IC50≤10 nM) were further assessed in a more sensitive fluorescence end-point assay.
[formula] where νo is the rate in the absence of inhibitor, νmin is the rate at highest inhibitor concentration, and h is the Hill coefficient. Flint Assay (5 nM CDK7/Cyclin H/MAT-1 Complex)
The continuous absorbance assay was converted to an end-point fluorescence assay following the NADH fluorescence signal decrease at the excitation and emission wavelengths of 340 nm and 440 nm, respectively.
Under the same concentrations of substrates and coupling reagents used in the absorbance assay, the fluorescence assay was performed at a reduced concentration of the CDK7/Cyclin H/MAT-1 complex of 5 nM (final concentration) with a reaction time of 24 hours. The percent of inhibition was calculated by the following equation. Percent of inhibition=(Sample−NC)/(PC−NC)*100 where NC is the mean if negative control (reaction without inhibitor), and PC is the mean of positive control (reaction with complete inhibition).
Dosing curves were fitted using the following equation to obtain IC50: Y=Bottom+(Top−Bottom)/(1+10^((log IC50−X)*Hill slope)) where X=log10 of the compound concentration; top and bottom can be defined by PC and NC respectively. Imaging-Based Cellular RNA PolII Ser5 Phosphorylation Assay

[2] = system: RNA polymerase II Serine 5 phosphorylation (Rpb1 CTD), downstream substrate of CDK7; assay: Imaging-based cellular RNA PolII Ser5 phosphorylation assay in A549 cells; format: cell-based, human; conditions: Homo sapiens, A549, 3 h, challenged with compound for 3 hours, read-out: pRNA polII Ser5 (A549) pIC50 (converted)
Summary of the method: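 A549 cells seeded 20 h in DMEM with 1% FBS, then exposed to compound for 3 h at 37 °C; fixed, methanol-permeabilized and immunostained for phospho-Rpb1 CTD Ser5, read by automated imaging. Signal normalized to DMSO (high) and 10 μM LDC4297 (low) controls; IC50 from four-parameter fit of % control vs concentration.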

T1 sequence (P50613 whole entry, the tested form may be a part): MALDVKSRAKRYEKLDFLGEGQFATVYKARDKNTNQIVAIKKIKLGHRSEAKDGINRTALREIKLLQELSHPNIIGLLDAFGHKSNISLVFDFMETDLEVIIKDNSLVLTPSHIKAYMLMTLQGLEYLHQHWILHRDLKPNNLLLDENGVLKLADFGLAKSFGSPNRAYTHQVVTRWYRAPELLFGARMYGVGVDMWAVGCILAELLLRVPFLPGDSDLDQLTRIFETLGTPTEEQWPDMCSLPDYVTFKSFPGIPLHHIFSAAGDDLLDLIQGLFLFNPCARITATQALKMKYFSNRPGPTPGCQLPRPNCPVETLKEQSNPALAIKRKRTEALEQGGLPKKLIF
T1 sequence (P51946 whole entry partner, the tested form may be a part): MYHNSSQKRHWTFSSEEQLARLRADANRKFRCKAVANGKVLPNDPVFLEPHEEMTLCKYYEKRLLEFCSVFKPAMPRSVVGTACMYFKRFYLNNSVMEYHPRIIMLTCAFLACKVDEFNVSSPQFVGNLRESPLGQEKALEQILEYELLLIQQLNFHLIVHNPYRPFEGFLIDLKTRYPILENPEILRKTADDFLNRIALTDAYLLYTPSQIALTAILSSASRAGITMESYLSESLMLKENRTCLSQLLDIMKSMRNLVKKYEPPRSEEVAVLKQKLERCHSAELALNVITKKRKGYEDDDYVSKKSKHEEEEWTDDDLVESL
T1 sequence (P51948 whole entry partner, the tested form may be a part): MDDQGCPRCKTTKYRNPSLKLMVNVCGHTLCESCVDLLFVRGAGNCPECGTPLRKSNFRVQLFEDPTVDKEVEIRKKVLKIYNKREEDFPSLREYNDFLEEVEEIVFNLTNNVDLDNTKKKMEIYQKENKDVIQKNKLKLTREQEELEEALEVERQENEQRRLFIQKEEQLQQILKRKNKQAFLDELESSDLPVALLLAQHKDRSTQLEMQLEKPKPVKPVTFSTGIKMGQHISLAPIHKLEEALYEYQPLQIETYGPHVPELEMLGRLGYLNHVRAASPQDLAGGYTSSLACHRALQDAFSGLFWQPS

CDK7 (5 nM) pIC50 [1] | IC50 [2] [µM] | IC50 [1] [µM] | SMILES
– | 0.933 | 0.00447 | C[C@@H]1Cc2cnc(N[C@H]3CCC(=O)N(C)C3)nc2CN1C(=O)[C@H]1CCN(C)C[C@@H]1c1ccccc1 (relative stereo) [Compound 7]
7.53 | 2.95 | – | C[C@@H]1Cc2cnc(NCc3cnn(C)c3)nc2CN1C(=O)[C@H]1CCN(C)C[C@@H]1c1ccccc1 [Compound 57]
7.88 | 0.316 | – | C[C@@H]1Cc2cnc(Nc3cnn4c3CCCC4)nc2CN1C(=O)[C@H]1CCN(C)C[C@@H]1c1ccccc1 [Compound 77]
7.57 | 5.01 | – | C[C@@H]1Cc2cnc(NC(C)(C)c3cnn(C)c3)nc2CN1C(=O)[C@H]1CCN(C)C[C@@H]1c1ccccc1 [Compound 90]
7.78 | 2.29 | – | C[C@@H]1Cc2cnc(Nc3ccnn3C)nc2CN1C(=O)[C@H]1CCN(C)C[C@@H]1c1ccccc1 [Compound 79]
– | 0.102 | 0.00676 | C[C@@H]1Cc2cnc(NCc3ccn(C)n3)nc2CN1C(=O)[C@H]1CCN(C)C[C@@H]1c1cccc(OC(F)(F)F)c1 (relative stereo) [Compound 128]
8.04 | 0.0575 | – | C[C@@H]1Cc2cnc(Nc3ccnc(C(F)F)c3)nc2CN1C(=O)[C@H]1CCN(C)C[C@@H]1c1ccccc1 [Compound 75]
– | 0.123 | 0.00513 | C[C@@H]1Cc2cnc(N[C@H](C)c3ccn(C)n3)nc2CN1C(=O)[C@H]1CCN(C)C[C@@H]1c1ccccc1 (single isomer, unassigned) [Compound 54]
– | 0.148 | 0.00537 | Cc1cccc([C@H]2CN(C)CC[C@@H]2C(=O)N2Cc3nc(Nc4cnn(C)c4)ncc3[C@@H]3C[C@@H]32)c1 (relative stereo) [Compound 203]
– | 4.47 | 0.0389 | C[C@H](Nc1ncc2c(n1)CN(C(=O)[C@H]1CCN(C)C[C@@H]1c1ccccc1)[C@H](C)C2)c1ccn(C)n1 (single isomer, unassigned) [Compound 55]
8.27 | ~0.0589 | – | CN1CC[C@H](C(=O)N2Cc3nc(NC4CCOCC4)ncc3[C@@H]3C[C@@H]32)[C@@H](c2ccccc2)C1 [Compound 199]
8.67 | ~0.0468 | – | C[C@@H]1Cc2cnc(Nc3cnn(C)c3)nc2CN1C(=O)[C@H]1CCN(C)C[C@@H]1c1ccccc1 [Compound 82]
8.52 | ~0.0676 | – | Cc1cccc([C@H]2CN(C)CC[C@@H]2C(=O)N2Cc3nc(NC4CCOCC4)ncc3C[C@H]2C)c1 [Compound 93]

The remaining lines, values behind:

SMILES | CDK7 (5 nM) pIC50 [1] | IC50 [2] [µM] | IC50 [1] [µM]
C[C@@H]1Cc2cnc(NC3CCOCC3)nc2CN1C(=O)[C@@H]1CC[C@@H](N(C)C)CN1c1ccccc1 (mixture of isomers) [Compound 167] | 6.95 | 5.75 | –
C[C@@H]1Cc2cnc(NC3CCN(S(=O)(=O)N(C)C)CC3)nc2CN1C(=O)N1CCN(C)C[C@@H]1c1ccccc1 [Compound 211] | 7.88 | 0.724 | –
C[C@@H]1Cc2cnc(N[C@@H]3CCOC(C)(C)C3)nc2CN1C(=O)[C@H]1CCN(C)C[C@@H]1c1ccccc1 (relative stereo) [Compound 40] | – | ~0.0525 | 0.00724
CO[C@H]1CC[C@H](Nc2ncc3c(n2)CN(C(=O)[C@H]2CCN(C)C[C@@H]2c2ccccc2)[C@H](C)C3)CC1 [Compound 37] | 8.6 | ~0.0339 | –
C[C@@H]1Cc2cnc(N[C@H](CO)c3ccccc3)nc2CN1C(=O)[C@H]1CCN(C)C[C@@H]1c1ccccc1 [Compound 72] | 8.22 | 0.2 | –
C[C@@H]1Cc2cnc(N[C@H](C)c3ccccc3)nc2CN1C(=O)[C@H]1CCN(C)C[C@@H]1c1ccccc1 [Compound 22] | 8.19 | ~0.0141 | –
C[C@@H]1Cc2cnc(NC3Cc4ccccc4C3)nc2CN1C(=O)[C@H]1CCN(C)C[C@@H]1c1ccccc1 [Compound 29] | 8.55 | 0.0126 | –
Cc1cccc([C@H]2CN(C(C)C)CC[C@@H]2C(=O)N2Cc3nc(NC4CCOCC4)ncc3C[C@H]2C)c1 [Compound 166] | 7.85 | ~0.0513 | –
C[C@H]1Cc2cnc(NC3CCOCC3)nc2CN1C(=O)N1CCN(C)C[C@H]1c1cccc(F)c1 (relative stereo) [Compound 212] | – | 0.182 | 0.00479
C[C@@H]1Cc2cnc(NCc3ccccc3)nc2CN1C(=O)[C@H]1CCN(C)C[C@@H]1c1ccccc1 [Compound 43] | 8.11 | 0.107 | –
C[C@H](Nc1ncc2c(n1)CN(C(=O)[C@H]1CCN(C)C[C@@H]1c1ccccc1)[C@H](C)C2)c1ccccn1 [Compound 20] | 8.19 | ~0.0141 | –
CO[C@H]1CC[C@H](Nc2cc3c(cn2)C[C@H](C)N(C(=O)[C@H]2CCN(C)C[C@@H]2c2cccc(C)c2)C3)CC1 [Compound 177c] | – | ~0.0977 | 0.0224
C[C@@H]1Cc2cnc(NC3CCOCC3)nc2CN1C(=O)[C@H]1CCN(C)C[C@@H]1c1ccccc1 [Compound 47] | 8.3 | ~0.0708 | –
CO[C@H]1CC[C@H](Nc2ncc3c(n2)CN(C(=O)[C@H]2CCN(C)C[C@@H]2c2ccccc2)C2(CC2)C3)CC1 [Compound 192] | 6.84 | 2.88 | –
C[C@@H]1Cc2cnc(NC3CCC(OCC4CC4)CC3)nc2CN1C(=O)[C@H]1CCN(C)C[C@@H]1c1ccccc1 (stereo partly drawn) [Compound 3] | 8.3 | 0.0603 | –
C[C@@H]1Cc2cnc(N[C@H]3CCOC4(CCC4)C3)nc2CN1C(=O)[C@H]1CCN(C)C[C@@H]1c1ccccc1 (relative stereo) [Compound 9] | – | 0.309 | 0.00617
Cc1ccc(CNc2ncc3c(n2)CN(C(=O)[C@H]2CCN(C)C[C@@H]2c2ccccc2)[C@H](C)C3)o1 [Compound 50] | 8.05 | 0.0724 | –
C[C@@H]1Cc2cnc(NC3CCC(OC(F)F)CC3)nc2CN1C(=O)[C@H]1CCN(C)C[C@@H]1c1ccccc1 (stereo partly drawn) [Compound 69] | 8.57 | 0.0589 | –
CO[C@H]1CC[C@H](Nc2ncc3c(n2)CN(C(=O)[C@H]2CCN(C)C[C@@H]2c2ccc(C)nc2)[C@H](C)C3)CC1 (relative stereo) [Compound 110] | – | 0.437 | 0.0129
C[C@@H]1Cc2cnc(N[C@@H]3CCOC4(CCC4)C3)nc2CN1C(=O)[C@H]1CCN(C)C[C@@H]1c1ccccc1 (relative stereo) [Compound 8] | – | 0.0692 | 0.00269
C[C@@H]1Cc2cnc(NC3CCS(=O)(=O)CC3)nc2CN1C(=O)[C@H]1CCN(C)C[C@@H]1c1ccccc1 [Compound 44] | 8.04 | 3.09 | –
C[C@H]1Cc2cnc(NC3CCOCC3)cc2CN1C(=O)[C@H]1CCN(C)C[C@@H]1c1ccccc1 (single isomer, unassigned) [Compound 171a] | – | 0.288 | 0.00575
CN1CC[C@H](C(=O)N2Cc3nc(NCc4ccn(C)n4)ncc3CC2(C)C)[C@@H](c2ccccc2)C1 (single isomer, unassigned) [Compound 191] | 7.41 | ~4.27 | –
C[C@@H]1Cc2cnc(N[C@H]3CC[C@H](C)CC3)nc2CN1C(=O)[C@H]1CCN(C)C[C@@H]1c1ccccc1 [Compound 13] | 8.85 | ~0.0339 | –
CC(C)N1CC[C@H](C(=O)N2Cc3nc(NC4CCOCC4)ncc3C[C@H]2C)[C@@H](c2cccc(Cl)c2)C1 (single isomer, unassigned) [Compound 160] | 8.58 | 0.135 | –
[2H]C([2H])(Nc1ncc2c(n1)CN(C(=O)[C@H]1CCN(C)C[C@@H]1c1ccccc1)[C@H](C)C2)c1ccccc1 [Compound 70] | – | 0.148 | 0.00178
